Source: PubChem BioAssay (NCI)
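Cells were grown in 96-well plates and exposed to each compound for 48 hours at five concentrations; endpoints were interpolated linearly between bracketing concentrations, or set to the highest concentration if not reached. TGI is the concentration that stops growth completely.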

How the values were obtained:
Assay in all cases: NCI tumour cell line growth inhibition, 48 h
[1] = tested on: MDA-MB-231 breast
[2] = tested on: SR leukemia
[3] = tested on: SK-MEL-5 melanoma
[4] = tested on: HL-60(TB) leukemia
[5] = tested on: SK-MEL-28 melanoma
[6] = tested on: OVCAR-5 ovarian
[7] = tested on: NCI/ADR-RES ovarian
[8] = tested on: COLO 205 colon
[9] = tested on: SF-539 CNS
[10] = tested on: OVCAR-8 ovarian
[11] = tested on: HOP-92 NSCLC
[12] = tested on: OVCAR-4 ovarian
[13] = tested on: UACC-62 melanoma
[14] = tested on: NCI-H226 lung
[15] = tested on: K-562 leukemia
[16] = tested on: SW-620 colon
[17] = tested on: DU-145 prostate
[18] = tested on: OVCAR-3 ovarian
[19] = tested on: HCT-15 colon
[20] = tested on: NCI-H522 lung
[21] = tested on: T-47D breast
[22] = tested on: SK-MEL-2 melanoma
[23] = tested on: TK-10 renal
[24] = tested on: SN12C renal
[25] = tested on: NCI-H23 lung
[26] = tested on: NCI-H460 lung
[27] = tested on: MDA-N
[28] = tested on: BT-549 breast
[29] = tested on: RXF 393 renal
[30] = tested on: ACHN renal
[31] = tested on: SNB-19 CNS
[32] = tested on: EKVX NSCLC
[33] = tested on: PC-3 prostate
[34] = tested on: HCT-116 colon
[35] = tested on: SK-OV-3 ovarian
[36] = tested on: MOLT-4 leukemia
[37] = tested on: KM12 colon
[38] = tested on: CAKI-1 renal
[39] = tested on: M14 melanoma
[40] = tested on: CCRF-CEM leukemia
[41] = tested on: IGROV1 ovarian
[42] = tested on: MCF7 breast
[43] = tested on: HT29 colon
[44] = tested on: 786-0 renal
[45] = tested on: SF-295 CNS
[46] = tested on: U251 CNS
[47] = tested on: MALME-3M melanoma
[48] = tested on: A549 NSCLC
[49] = tested on: SNB-75 CNS
[50] = tested on: MDA-MB-435
[51] = tested on: HCC-2998 colon
[52] = tested on: UACC-257 melanoma
[53] = tested on: LOX IMVI melanoma
[54] = tested on: UO-31 renal
[55] = tested on: SF-268 CNS
[56] = tested on: A498 renal
[57] = tested on: HOP-62 NSCLC
[58] = tested on: RPMI-8226 leukemia
[59] = tested on: HS 578T breast

COc1ccc(N[C@H](CS(=O)c2ccc(C)cc2)C(F)(F)F)cc1 (some centres not stated)
TGI [1]: > 100 µM
TGI [2]: > 100 µM
TGI [3]: > 100 µM
TGI [4]: > 100 µM
TGI [5]: > 100 µM
TGI [6]: > 100 µM
TGI [7]: > 100 µM
TGI [8]: > 100 µM
TGI [9]: > 100 µM
TGI [10]: > 100 µM
TGI [11]: > 100 µM
TGI [12]: > 100 µM
TGI [13]: > 100 µM
TGI [14]: > 100 µM
TGI [15]: > 100 µM
TGI [16]: > 100 µM
TGI [17]: > 100 µM
TGI [18]: > 100 µM
TGI [19]: > 100 µM
TGI [20]: > 100 µM
TGI [21]: > 100 µM
TGI [22]: > 100 µM
TGI [23]: > 100 µM
TGI [24]: > 100 µM
TGI [25]: > 100 µM
TGI [26]: > 100 µM
TGI [27]: > 100 µM
TGI [28]: > 100 µM
TGI [29]: > 100 µM
TGI [30]: > 100 µM
TGI [31]: > 100 µM
TGI [32]: > 100 µM
TGI [33]: > 100 µM
TGI [34]: > 100 µM
TGI [35]: > 100 µM
TGI [36]: > 100 µM
TGI [37]: > 100 µM
TGI [38]: > 100 µM
TGI [39]: > 100 µM
TGI [40]: > 100 µM
TGI [41]: > 100 µM
TGI [42]: > 100 µM
TGI [43]: > 100 µM
TGI [44]: > 100 µM
TGI [45]: > 100 µM
TGI [46]: > 100 µM
TGI [47]: > 100 µM
TGI [48]: > 100 µM
TGI [49]: > 100 µM
TGI [50]: > 100 µM
TGI [51]: > 100 µM
TGI [52]: > 100 µM
TGI [53]: > 100 µM
TGI [54]: > 100 µM

CC(=O)/C(=C/N1CC(=O)NC1=S)C(=O)Nc1ccccc1C
TGI [1]: > 100 µM
TGI [3]: > 100 µM
TGI [4]: > 100 µM
TGI [5]: > 100 µM
TGI [6]: > 100 µM
TGI [7]: > 100 µM
TGI [8]: > 100 µM
TGI [9]: > 100 µM
TGI [10]: > 100 µM
TGI [11]: > 100 µM
TGI [12]: > 100 µM
TGI [16]: > 100 µM
TGI [17]: > 100 µM
TGI [18]: > 100 µM
TGI [19]: > 100 µM
TGI [21]: > 100 µM
TGI [22]: > 100 µM
TGI [23]: > 100 µM
TGI [24]: > 100 µM
TGI [55]: > 100 µM
TGI [25]: > 100 µM
TGI [26]: > 100 µM
TGI [56]: > 100 µM
TGI [27]: > 100 µM
TGI [28]: > 100 µM
TGI [29]: > 100 µM
TGI [30]: > 100 µM
TGI [31]: > 100 µM
TGI [32]: > 100 µM
TGI [34]: > 100 µM
TGI [35]: > 100 µM
TGI [36]: > 100 µM
TGI [37]: > 100 µM
TGI [38]: > 100 µM
TGI [39]: > 100 µM
TGI [41]: > 100 µM
TGI [43]: > 100 µM
TGI [57]: > 100 µM
TGI [44]: > 100 µM
TGI [45]: > 100 µM
TGI [46]: > 100 µM
TGI [48]: > 100 µM
TGI [49]: > 100 µM
TGI [50]: > 100 µM
TGI [51]: > 100 µM
TGI [52]: > 100 µM
TGI [53]: > 100 µM
TGI [54]: > 100 µM

CN(CCO)CCC1COc2ccccc2O1 (configuration not stated)
TGI [58]: > 10 µM
TGI [1]: > 10 µM
TGI [2]: > 10 µM
TGI [3]: > 10 µM
TGI [4]: > 10 µM
TGI [5]: > 10 µM
TGI [6]: > 10 µM
TGI [7]: > 10 µM
TGI [8]: > 10 µM
TGI [9]: > 10 µM
TGI [10]: > 10 µM
TGI [12]: > 10 µM
TGI [13]: > 10 µM
TGI [14]: > 10 µM
TGI [15]: > 10 µM
TGI [16]: > 10 µM
TGI [17]: > 10 µM
TGI [18]: > 10 µM
TGI [19]: > 10 µM
TGI [20]: > 10 µM
TGI [21]: > 10 µM
TGI [22]: > 10 µM
TGI [23]: > 10 µM
TGI [24]: > 10 µM
TGI [55]: > 10 µM
TGI [25]: > 10 µM
TGI [26]: > 10 µM
TGI [56]: > 10 µM
TGI [27]: > 10 µM
TGI [29]: > 10 µM
TGI [30]: > 10 µM
TGI [31]: > 10 µM
TGI [32]: > 10 µM
TGI [33]: > 10 µM
TGI [34]: > 10 µM
TGI [35]: > 10 µM
TGI [36]: > 10 µM
TGI [37]: > 10 µM
TGI [38]: > 10 µM
TGI [39]: > 10 µM
TGI [40]: > 10 µM
TGI [41]: > 10 µM
TGI [42]: > 10 µM
TGI [43]: > 10 µM
TGI [57]: > 10 µM
TGI [45]: > 10 µM
TGI [46]: > 10 µM
TGI [47]: > 10 µM
TGI [59]: > 10 µM
TGI [48]: > 10 µM
TGI [49]: > 10 µM
TGI [50]: > 10 µM
TGI [51]: > 10 µM
TGI [53]: > 10 µM
TGI [54]: > 10 µM

N#CC12CC(C=O)=C(N)C1(C#N)CC(C=O)=C2N (configuration not stated)
TGI [58]: > 100 µM
TGI [1]: > 100 µM
TGI [2]: > 100 µM
TGI [3]: 54.1 µM
TGI [4]: > 100 µM
TGI [5]: > 100 µM
TGI [6]: > 100 µM
TGI [7]: > 100 µM
TGI [8]: > 100 µM
TGI [9]: > 100 µM
TGI [10]: > 100 µM
TGI [11]: > 100 µM
TGI [13]: > 100 µM
TGI [14]: > 100 µM
TGI [15]: > 100 µM
TGI [16]: > 100 µM
TGI [17]: > 100 µM
TGI [19]: 38.5 µM
TGI [20]: > 100 µM
TGI [21]: > 100 µM
TGI [22]: 76.3 µM
TGI [23]: > 100 µM
TGI [24]: > 100 µM
TGI [55]: > 100 µM
TGI [25]: > 100 µM
TGI [56]: > 100 µM
TGI [27]: > 100 µM
TGI [29]: > 100 µM
TGI [30]: > 100 µM
TGI [31]: > 100 µM
TGI [32]: > 100 µM
TGI [33]: > 100 µM
TGI [34]: > 100 µM
TGI [35]: > 100 µM
TGI [36]: > 100 µM
TGI [37]: > 100 µM
TGI [38]: > 100 µM
TGI [39]: > 100 µM
TGI [40]: > 100 µM
TGI [41]: > 100 µM
TGI [42]: > 100 µM
TGI [43]: > 100 µM
TGI [57]: > 100 µM
TGI [44]: > 100 µM
TGI [45]: > 100 µM
TGI [46]: > 100 µM
TGI [47]: > 100 µM
TGI [59]: > 100 µM
TGI [48]: > 100 µM
TGI [49]: > 100 µM
TGI [50]: > 100 µM
TGI [51]: 80 µM
TGI [52]: > 100 µM
TGI [53]: > 100 µM
TGI [54]: > 100 µM
